Test system: EHEC binding to Caco2 cells
Assay: inhibition of pathogen (EHEC) binding to human colon cancer cells
Format: cell-based
Details: EHEC (2×10^8 cfu/ml) on Caco2 cells; test solution 5-10 mg/ml hydrolysed fibre; 1 h at 37° C.; cfu versus blank
Method: Different oligosaccharides obtained by hydrolysis of fibres were used to measure inhibition of pathogen binding to human colon cancer cells. Cells for the binding experiment are grown under standard conditions. The growth medium is removed from the cells and 0.2 ml of minimal essential medium, 0.4 ml EHEC solution (2×10^8 cfu/ml) and 0.4 ml of test solution (5-10 mg/ml hydrolysed fibre) is added. Appropriate blanks are used as controls. Cells are incubated for an hour at 37° C., after which the medium is removed. The cells are washed five times with PBS buffer, lysed, homogenised, diluted and plated to count colony-forming units, following standard procedures. Comparison of the amount of cfu's found with the blank and with one of the fractions, the inhibiting power of the fraction can be calculated as percentage reduction in binding. The table below summarises results of binding reduction. […] All other oligosaccharides (non arabinose-containing) have lower than 60% binding reduction activity.

OC[C@H]1O[C@@H](O[C@H]2[C@H](O)[C@@H](O)C(O)O[C@@H]2CO)[C@H](O)[C@@H](O)[C@H]1O (stereo partly shown) [lactose]
% binding reduction: 28%
